Laboratory results taken from patent US20160159861A1, “APJ Receptor Compounds” (priority 2013, published 2016).
Read-outs that look alike come from different tables or passages of the source. Peptide text beside a SMILES is read from it.

Tests used:
[1] = target: T1, human APJ receptor (hAPJ) (Homo sapiens, UniProt P35414); experiment: HTRF cAMP assay: inhibition of NKH477-stimulated cAMP in HEK cells stably expressing hAPJ; assay type: cell-based; settings: for % IA (cAMP inhibition, hAPJ HEK): intrinsic activity; for Ranking: composite class of EC50 (hAPJ), % IA and % histamine or formal (+) charge
T1 construct: expressed in transfected cells
T1 sequence (P35414 1-380): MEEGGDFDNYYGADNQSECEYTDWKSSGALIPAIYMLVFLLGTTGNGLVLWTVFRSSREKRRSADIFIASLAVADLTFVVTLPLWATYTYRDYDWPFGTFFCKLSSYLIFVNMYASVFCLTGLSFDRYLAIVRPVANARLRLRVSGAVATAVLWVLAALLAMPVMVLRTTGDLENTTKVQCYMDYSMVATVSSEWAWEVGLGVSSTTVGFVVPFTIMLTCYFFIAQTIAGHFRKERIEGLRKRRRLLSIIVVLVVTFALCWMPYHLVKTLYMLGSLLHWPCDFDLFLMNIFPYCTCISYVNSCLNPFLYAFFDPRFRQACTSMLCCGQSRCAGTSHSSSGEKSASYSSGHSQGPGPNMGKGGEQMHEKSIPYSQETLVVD
Source text: HTRF cAMP Assay and IP-One Assay (Cisbio)
HTRF (homogeneous time resolved fluorescence) is a technology developed by Cisbio Bioassays based on TR-FRET (time-resolved fluorescence resonance energy transfer). Cisbio Bioassays has developed a wide selection of HTRF-based assays compatible with whole cells, thereby enabling functional assays to run under more physiological conditions. The IP-One assays are competitive immunoassays using cryptate-labeled anti-IP1 monoclonal antibody and d2-labeled IP1. IP1 is a relatively stable downstream metabolite of IP3, and accumulates in cells following Gq receptor activation.
cAMP kits based on a competitive immunoassay using cryptate-labeled anti-cAMP antibody and d2-labeled cAMP were used to assay the effects of APJ compounds of the present invention. […] Cells are treated with 1 nG/mL doxycycline and seeded in all white 96 well plates @40 k/well overnight.

rat peritoneal cells = experiment: Ex vivo histamine release assay in rat peritoneal cells (vs. Compound 48/80); assay type: cell-based
Source text: More desirable pharmacological tolerability can include a decrease in an undesirable side effect (e.g., histamine release, an indicator of mast cell degranulation) without a significant loss in activity of the compound.
Screening of the variant G protein receptor compounds against a control compound for histamine release can be done following standard assays. The standard assay can include comparison to a control compound known to elicit a histamine response (e.g., 48/80 having CAS No. 94724-12-6). Such an assay using rat peritoneal cells is described herein for the APJ compounds.
Test compounds were assayed in the ex vivo histamine release assay using a 3-point dose response. Concentrations of total histamine contained in the cells is used to correct for variability in the numbers of mast cells in the lavage per well.
Resident peritoneal cells were harvested from naïve Sprague Dawley rats (male 200-300 gr, Charles River). Rats were euthanized by CO2 asphyxiation and a skin incision was made along the middle-line of the abdomen. Thirty milliliters of HBSS (HyClone, cat#SH 30268.01) containing 20 mM HEPES and 0.2% BSA (heretofore Assay Buffer) were injected intraperitoneally using a 30 mL syringe with the attached 18 gauge needle. The abdomen was gently lavaged for 1-2 min and 7-10 milliliters of the peritoneal lavage were carefully aspirated. Cell count in the peritoneal lavage was determined using Cellometer Auto T4 (Nexcelom Bioscience). The peritoneal cell count was adjusted to […] cells/mL in Assay Buffer. Rat peritoneal cells were kept at room temperature before and during the assay.
For the 10-point assay, 3-fold serial dilutions were prepared for each test compound in 100% DMSO in 96-well plates (Greiner Bio One, Ref#651261)—from 100 μM down to […]. For the 3-point assay, 10-fold serial dilutions were prepared in 100% DMSO at 100 μM, 10 μM and 1 μM concentrations. From this plate, 5 μL of compound were transferred to a new plate containing 45 μL Assay Buffer to generate a compound plate with 10× final concentrations in 10% DMSO with Assay Buffer. In the final plates, column 11 contained 1% DMSO for the low-histamine-releasing control.
Suspensions of the rat peritoneal cells (90 μL of 2.75×10^5 cells/mL; →25,000 cells per well) were introduced into each well of a new 96-well microtiter plate (Greiner Bio One, Ref#651261) and 10 μL aliquots of the serially diluted compounds were transferred to the cells in each well. The microtiter plate was incubated for 30 min at room temperature. Following incubation cells were spun down (500 rpm, 7 min) and supernatants were collected for further analysis. Supernatants were diluted 6 times with the assay buffer (15 μL to 75 μL, for 90 μL total) and released histamine content was determined using HTRF® Histamine assay kit (CisBio, cat#62HTMPEB). To measure the total histamine in each well, cells were lysed by addition of 15 μL 5% TritonX-100 to each well followed by incubation for 15 minutes. The plates were then spun at 3000 rpm for 5 minutes, and 10 μL of supernatant were diluted 9-fold in assay buffer (10 μL to 80 μL for 90 μL total) to make the “total” histamine plate. Histamine content was measured as described above for the “released” histamine values.
The standard positive control was Compound 48/80 (Enzo Life Sciences), a oligomeric polymer mixture produced by the condensation of N-methyl-p-methoxyphenethylamine with formaldehyde. The trimer is the most abundant in the mixture Compound 48/80 is used to promote mast cell degranulation and activates G proteins by a mechanism analogous to that of mastoparan. […] See references: T. Higashijima et al., J. Biol., Chem., 265 14176 (1990); M. Mousli et al., FEBS Lett., 259 260 (1990); K. Gietzen et al., Biochim. Biophys. Acta, 736 109 (1983); K. Gietzen, Biochem. J., 1983 216 611 and C. Bronner et al., Biochim. Biophys. Acta, 920 301(1987).

[2] = EC50 (cAMP inhibition, hAPJ HEK), Table 6, hAPJ HEK cells, NKH477-stimulated cAMP
[3] = histamine release from rat peritoneal cells relative to Compound 48/80
[4] = Table 6, hAPJ HEK cells, NKH477-stimulated cAMP, read-out: EC50 (cAMP inhibition, hAPJ HEK)

CCCCCCCCCCCCCCCC(=O)N[C@H](C(=O)N1CCC[C@H]1C(=O)N[C@H](C(=O)N[C@@H](Cc1ccccc1)C(=O)N[C@@H](CCCNC(=N)N)C(=O)N[C@@H](CO)C(=O)N[C@@H](CO)C(=O)N1CCC[C@H]1C(=O)N[C@@H](CCC(=O)O)C(=O)N[C@H](CCCCN)C(=O)N[C@@H](CCCNC(=N)N)C(=O)N[C@@H](CCCNC(=N)N)C(=O)N[C@@H](CO)C(=O)N[C@@H](C)C(=O)N[C@@H](CC(=O)O)C(=O)N[C@H](C(=O)N[C@@H](Cc1ccccc1)C(=O)N[C@H](C(N)=O)[C@@H](C)CC)[C@@H](C)CC)C(C)C)[C@@H](C)O [Compound 2] (HELM PEPTIDE1{[CCCCCCCCCCCCCCCC(=O)[*:2]].T.P.V.F.R.S.S.P.E.[dK].R.R.S.A.D.I.F.I.[am]}$$$$V2.0)
EC50 [1, 2]: 0.004 µM
% IA (cAMP inhibition, hAPJ HEK) ([1]; Table 6, hAPJ HEK cells): 60%
Ranking [1]: ** (EC50 25-50 nM (hAPJ), % IA 50-79% and either % histamine>35% or formal (+) charge>1)
Histamine (% vs. 48/80) (rat peritoneal cells; [3]): 49%

CCCCCCCCCCCCCCCC(=O)N1CCC[C@H]1C(=O)N[C@@H](CCC(=O)O)C(=O)N[C@H](CCCCN)C(=O)N[C@@H](CCCNC(=N)N)C(=O)N[C@@H](CCCNC(=N)N)C(=O)N[C@@H](CO)C(=O)N[C@@H](C)C(=O)N[C@@H](CC(=O)O)C(=O)N[C@H](C(=O)N[C@@H](Cc1ccccc1)C(=O)N1CCC[C@H]1C(N)=O)[C@@H](C)CC [Compound 4] (HELM PEPTIDE1{[CCCCCCCCCCCCCCCC(=O)[*:2]].P.E.[dK].R.R.S.A.D.I.F.P.[am]}$$$$V2.0)
EC50 [1, 4]: 0.009 µM
% IA (cAMP inhibition, hAPJ HEK) ([1]; Table 6, hAPJ HEK cells): 48%
Ranking [1]: * (EC50≦50 nM (hAPJ), % IA<50%)
Histamine (% vs. 48/80) (rat peritoneal cells): -1%

CCCCCCCCCCCCCCCC(=O)N[C@H](C(=O)N[C@H](C(=O)N[C@@H](Cc1ccccc1)C(=O)N[C@@H](CCCNC(=N)N)C(=O)N[C@@H](CO)C(=O)N[C@@H](CO)C(=O)N[C@@H](CCC(=O)O)C(=O)N[C@H](CCCN)C(=O)N[C@@H](CCCNC(=N)N)C(=O)N[C@@H](CCCNC(=N)N)C(=O)N[C@@H](CO)C(=O)N[C@@H](C)C(=O)N[C@@H](CC(=O)O)C(=O)N[C@H](C(=O)N[C@@H](Cc1ccccc1)C(=O)N[C@H](C(N)=O)[C@@H](C)CC)[C@@H](C)CC)C(C)C)[C@@H](C)O [Compound 8] (HELM PEPTIDE1{[CCCCCCCCCCCCCCCC(=O)[*:2]].T.V.F.R.S.S.E.[NCCC[C@@H](N[*:1])C(=O)[*:2]].R.R.S.A.D.I.F.I.[am]}$$$$V2.0)
EC50 [1, 2]: 0.014 µM
EC50 ([1]; EC50 (hAPJ), inhibition of cAMP production, bound stated, HTRF cAMP Assay, per data of Table 6): ≤ 0.025 µM
Emax ([1]; HEK293, HTRF cAMP Assay, per data of Table 6, read-out: % IA, bound stated): ≥ 80%
% IA (cAMP inhibition, hAPJ HEK) ([1]; Table 6, hAPJ HEK cells): 99%
Ranking [1]: ***** (EC50≦25 nM (hAPJ), % IA≧80% and either % histamine≦35% or formal (+) charge≦1)
inhibition of NKH477-stimulated increase in cAMP, dose dependent ([1]; concentration response curves, FIGS. 1 and 2, HEK cells stably expressing APJ): inhibited
Histamine (% vs. 48/80) (rat peritoneal cells; [3]): 9%

CCCCCCCCCCCCCCCC(=O)N1CCC[C@H]1C(=O)N[C@@H](CCCCNC(=O)[C@@H]1CCCN1C(=O)[C@H](Cc1ccccc1)NC(=O)[C@@H](NC(=O)[C@H](CC(=O)O)NC(=O)[C@H](C)NC(=O)[C@H](CO)NC(=O)[C@H](CCCNC(=N)N)NC(=O)[C@H](CCCNC(=N)N)NC(=O)[C@@H](CCCCN)NC(=O)[C@@H]1CCCN1C(C)=O)[C@@H](C)CC)C(=O)N[C@@H](CCCNC(=N)N)C(=O)N[C@@H](CCCNC(=N)N)C(=O)N[C@@H](CO)C(=O)N[C@@H](C)C(=O)N[C@@H](CC(=O)O)C(=O)N[C@H](C(=O)N[C@@H](Cc1ccccc1)C(=O)N1CCC[C@H]1C(N)=O)[C@@H](C)CC [Compound 9] (HELM PEPTIDE1{[CCCCCCCCCCCCCCCC(=O)[*:2]].P.K.R.R.S.A.D.I.F.P.[am]}|PEPTIDE2{[ac].P.[dK].R.R.S.A.D.I.F.P}$PEPTIDE1,PEPTIDE2,3:R3-11:R2$$$V2.0)
% IA (cAMP inhibition, hAPJ HEK) ([1]; Table 6, hAPJ HEK cells): 84%
Ranking [1]: ** (EC50 25-50 nM (hAPJ), % IA 50-79% and either % histamine>35% or formal (+) charge>1)
Histamine (% vs. 48/80) (rat peritoneal cells): 65%

CCCCCCCCCCCCCCCC(=O)N[C@H](C(=O)N[C@H](C(=O)N[C@@H](Cc1ccccc1)C(=O)N[C@@H](CCCNC(=N)N)C(=O)N[C@@H](CO)C(=O)N[C@@H](CO)C(=O)N[C@@H](CCC(=O)O)C(=O)N[C@H](C)C(=O)N[C@@H](CCCNC(=N)N)C(=O)N[C@@H](CCCNC(=N)N)C(=O)N[C@@H](CO)C(=O)N[C@@H](C)C(=O)N[C@@H](CC(=O)O)C(=O)N[C@H](C(=O)N[C@@H](Cc1ccccc1)C(=O)N[C@H](C(N)=O)[C@@H](C)CC)[C@@H](C)CC)C(C)C)[C@@H](C)O [Compound 10] (HELM PEPTIDE1{[CCCCCCCCCCCCCCCC(=O)[*:2]].T.V.F.R.S.S.E.[dA].R.R.S.A.D.I.F.I.[am]}$$$$V2.0)
EC50 [1, 2]: 0.039 µM
% IA (cAMP inhibition, hAPJ HEK) ([1]; Table 6, hAPJ HEK cells): 106%
Ranking [1]: ** (EC50 25-50 nM (hAPJ), % IA 50-79% and either % histamine>35% or formal (+) charge>1)
Histamine (% vs. 48/80) (rat peritoneal cells; [3]): 3%

CCCCCCCCCCCCCCCC(=O)N[C@H](C(=O)N[C@H](C(=O)N[C@@H](Cc1ccccc1)C(=O)N[C@@H](CCCNC(=N)N)C(=O)N[C@@H](CO)C(=O)N[C@@H](CO)C(=O)N[C@@H](CCC(=O)O)C(=O)N[C@H](CCCCN)C(=O)N[C@@H](CCCNC(=N)N)C(=O)N[C@@H](CCCNC(=N)N)C(=O)N[C@@H](CO)C(=O)N[C@@H](C)C(=O)N[C@@H](CC(=O)O)C(=O)N[C@@H](Cc1ccc(-c2ccccc2)cc1)C(=O)N[C@@H](Cc1ccccc1)C(=O)N[C@H](C(N)=O)[C@@H](C)CC)C(C)C)[C@@H](C)O [Compound 11, TVFRSSEkRRSAD(Bip)FI] (HELM PEPTIDE1{[CCCCCCCCCCCCCCCC(=O)[*:2]].T.V.F.R.S.S.E.[dK].R.R.S.A.D.[O=C([C@H](Cc1ccc(-c2ccccc2)cc1)N[*:1])[*:2]].F.I.[am]}$$$$V2.0)
EC50 [1, 4]: 0.034 µM
% IA (cAMP inhibition, hAPJ HEK) ([1]; Table 6, hAPJ HEK cells): 76%
Ranking [1]: ** (EC50 25-50 nM (hAPJ), % IA 50-79% and either % histamine>35% or formal (+) charge>1)
Histamine (% vs. 48/80) (rat peritoneal cells): 8%
